Source: ChEMBL document CHEMBL3997813, “Selective inhibition of monoamine oxidase A by purpurin, an anthraquinone” (Bioorg Med Chem Lett, 2017)
pIC50, pKi: −log10 of the molar value. Values belong to the compound of their own block, whether it stands above or below them.

Key:
[1] = target: T1, Amine oxidase [flavin-containing] A (Homo sapiens, UniProt P21397); test: Competitive inhibition of recombinant human MAO-A using varying levels of kynuramine substrate after 5 mins by Lineweaver-Burk plot analysis
T1 sequence (P21397 whole entry): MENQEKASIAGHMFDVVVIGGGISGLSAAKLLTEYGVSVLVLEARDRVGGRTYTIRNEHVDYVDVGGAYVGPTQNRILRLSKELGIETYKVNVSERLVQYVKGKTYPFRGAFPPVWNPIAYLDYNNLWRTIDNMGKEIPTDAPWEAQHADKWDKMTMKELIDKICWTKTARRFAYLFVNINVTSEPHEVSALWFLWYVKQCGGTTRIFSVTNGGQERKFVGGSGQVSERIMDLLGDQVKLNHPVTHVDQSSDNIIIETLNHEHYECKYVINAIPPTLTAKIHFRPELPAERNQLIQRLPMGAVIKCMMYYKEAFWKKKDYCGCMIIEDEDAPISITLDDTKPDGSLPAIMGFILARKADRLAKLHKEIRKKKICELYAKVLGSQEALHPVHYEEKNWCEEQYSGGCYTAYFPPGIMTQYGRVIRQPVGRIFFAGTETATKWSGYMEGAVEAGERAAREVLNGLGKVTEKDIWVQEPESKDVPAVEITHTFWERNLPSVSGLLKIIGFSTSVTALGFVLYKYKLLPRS

[2] = target: T1, Amine oxidase [flavin-containing] A; test: Inhibition of recombinant human liver MAO-A expressed in yeast using kynuramine as substrate preincubated for 3 mins followed by substrate addition by double reciprocal plot analysis
[3] = target: T2, Amine oxidase [flavin-containing] B (Homo sapiens, UniProt P27338); test: Inhibition of recombinant human MAO-B using benzylamine as substrate preincubated for 15 mins
T2 sequence (P27338 whole entry): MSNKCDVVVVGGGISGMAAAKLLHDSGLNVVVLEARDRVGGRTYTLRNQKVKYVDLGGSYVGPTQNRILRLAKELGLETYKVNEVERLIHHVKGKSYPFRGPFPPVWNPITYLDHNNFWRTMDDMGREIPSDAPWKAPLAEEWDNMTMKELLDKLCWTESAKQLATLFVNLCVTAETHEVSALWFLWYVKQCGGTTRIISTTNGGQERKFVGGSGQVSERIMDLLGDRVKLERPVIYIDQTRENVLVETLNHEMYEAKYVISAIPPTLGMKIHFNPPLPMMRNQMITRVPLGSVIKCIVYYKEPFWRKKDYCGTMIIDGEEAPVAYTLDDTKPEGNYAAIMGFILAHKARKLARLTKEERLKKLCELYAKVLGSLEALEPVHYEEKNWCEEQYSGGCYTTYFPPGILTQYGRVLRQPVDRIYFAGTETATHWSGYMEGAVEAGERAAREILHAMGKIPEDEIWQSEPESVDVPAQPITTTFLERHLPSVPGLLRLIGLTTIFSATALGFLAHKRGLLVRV

[4] = target: T1, Amine oxidase [flavin-containing] A; test: Inhibition of recombinant human MAO-A using kynuramine as substrate incubated for 10 mins
[5] = target: T1, Amine oxidase [flavin-containing] A; test: Irreversible inhibition of recombinant human MAO-A using kynuramine as substrate assessed as residual activity at 100 times IC50 preincubated for 10 mins followed by 100 times compound dilution
[6] = target: T1, Amine oxidase [flavin-containing] A; test: Inhibition of recombinant human MAO-A assessed as residual activity at 5 uM using 0.2 mM kynuramine as substrate incubated for 10 mins; details: read-out: Activity
[7] = target: T1, Amine oxidase [flavin-containing] A; test: Reversible inhibition of recombinant human MAO-A assessed as residual activity at 5 uM preincubated for 10 mins in presence of kynuramine substrate followed by re-addition of 0.2 mM of substrate measured after 10 mins; details: read-out: Activity
[8] = target: T1, Amine oxidase [flavin-containing] A; test: Inhibition of recombinant human MAO-A assessed as residual activity at 5 uM using 0.4 mM of kynuramine as substrate after 10 mins; details: read-out: Activity
[9] = target: T1, Amine oxidase [flavin-containing] A; test: Competitive inhibition of recombinant human MAO-A using 0.01 to 0.5 mM kynuramine substrate by Lineweaver-Burk plot analysis
[10] = target: T1, Amine oxidase [flavin-containing] A; test: Reversible inhibition of recombinant human MAO-A using kynuramine as substrate assessed as residual activity at 100 times IC50 preincubated for 10 mins followed by 100 times compound dilution
[11] = target: T1, Amine oxidase [flavin-containing] A; test: Time-dependent inhibition of recombinant human MAO-A preincubated up to 30 mins followed by addition of 0.2 mM of kynuramine as substrate
[12] = target: T2, Amine oxidase [flavin-containing] B; test: Inhibition of recombinant human MAO-B using benzylamine as substrate at 40 uM after 15 mins relative to control; details: 0.25 h

- pKi [1]: 5.74
Structure (SMILES): CNc1ccccc1-c1nc(C(=O)OC)cs1

- pIC50 [3]: < 4.22
- pIC50 [4]: 4.52
Structure (SMILES): O=C1c2ccccc2C(=O)c2c1ccc(O)c2O [ATHRAQUINONES A]

- activity at 5 µM [6]: 36.6%
- pIC50 [3]: < 4.40
- activity at 5 µM [7]: 55.2%
- activity at 5 µM [8]: 54.4%
- pIC50 [4]: 5.60
- pKi [9]: 6.37
- Activity [10]: 63.9 to 67.2%
- TDI [11]: Active
- inhibition at 40 µM [12]: 23.3%
Structure (SMILES): O=C1c2ccccc2C(=O)c2c(O)c(O)cc(O)c21 [PURPURIN]

Continued, compound first:

Structure (SMILES): Cn1ccc2c3ccccc3nc-2c1
- pKi [2]: 5.84

Structure (SMILES): C#CCN(C)CCCOc1ccc(Cl)cc1Cl [CLORGILINE]
- Activity [5]: 24.9 to 47.9%
